Consider 23 molecules from patent publication US20060030609A1, “Oxazolidinones containing oxindoles as antibacterial agents” (priority 2004, published 2006).

≈ marks a conversion by molar mass, not a printed value.

Common to all, as to assay: in vitro antibacterial activity (MIC, NCCLS dilution)
Type in all cases: cell-based

One assay deals with E.faecalis MGH-2 EF 1-1. As to conditions: Enterococcus faecalis, MGH2EF11. The source says:
(§1) The in vitro antibacterial activity of the compounds of the present invention may be assessed by following procedures recommended in (1) National Committee for Clinical Laboratory Standards (January 2003), Methods for dilution antimicrobial tests for bacteria that grow aerobically, Approved Standard (6th ed), M7-A6, NCCLS, Wayne, Pa.; (2) National Committee for Clinical Laboratory Standards (March 2001), Method for antimicrobial susceptibility testing of anaerobic bacteria, Approved Standard (5th ed), M11-A4, NCCLS, Wayne, Pa.; (3) National Committee for Clinical Laboratory Standards (January 2003), MIC testing supplemental tables, M100-S13 (for use with M7-A6), NCCLS, Wayne, Pa.; and (4) Murray P R, Baron E J, Jorgensen J H, et al. Manual of Clinical Microbiology (8th ed) Washington, D.C.: American Society for Microbiology Press, 2003. The MJC value is the lowest concentration of drug which prevented macroscopically visible growth under the conditions of the test.

A further assay has as its system S. aureus UC-76 SA-1. The following applies: Staphylococcus aureus, UC76.
Description: as §1

Another assay deals with S. pneumoniae SV1 SP-3. As to conditions: Streptococcus pneumoniae, SV1SP3.
Description: as §1

A word on the MIC90: it is the lowest concentration that inhibits either 90% of growth or 90% of the strains tested, depending on the study. Low readings indicate higher susceptibility, high ones lower susceptibility. `CN1C(=O)Cc2cc(N3C[C@H](C(N)=O)OC3=O)ccc21` [Example 1, (5R)-3-(1-methyl-2-oxo-2,3-dihydro-1H-indol-5-yl)-2-oxo-oxazolidine-5-carboxylic acid amide]: the results for the MIC90 in the assay on E.faecalis MGH-2 EF 1-1, in the assay on S. aureus UC-76 SA-1 and with S. pneumoniae SV1 SP-3 were 4 µg/mL (≈ 14.5 µM), 2 µg/mL (≈ 7.27 µM) and 2 µg/mL (≈ 7.27 µM), respectively.
On to `CNC(=O)[C@H]1CN(c2ccc3c(c2)CC(=O)N3C)C(=O)O1` [Example 2], for which the MIC90 worked out at 4 µg/mL (≈ 13.8 µM) in the assay on E.faecalis MGH-2 EF 1-1, 2 µg/mL (≈ 6.91 µM) against S. aureus UC-76 SA-1 and 2 µg/mL (≈ 6.91 µM) against S. pneumoniae SV1 SP-3.
With `CN1C(=O)Cc2cc(N3C[C@H](C(N)=O)OC3=O)cc(F)c21` [Example 3, (5R)-3-(7-fluoro-1-methyl-2-oxo-2,3-dihydro-1H-indol-5-yl)-2-oxo-oxazolidine-5-carboxylic acid amide], the MIC90 with E.faecalis MGH-2 EF 1-1, with S. aureus UC-76 SA-1 and in the assay with S. pneumoniae SV1 SP-3 was 16 µg/mL (≈ 54.6 µM) throughout.
Consider `CCN1C(=O)Cc2cc(N3C[C@H](C(N)=O)OC3=O)ccc21` [Example 4, (5R)-3-(1-ethyl-2-oxo-2,3-dihydro-1H-indol-5-yl)-2-oxo-oxazolidine-5-carboxylic acid amide], for which the results for the MIC90 against E.faecalis MGH-2 EF 1-1, against S. aureus UC-76 SA-1 and against S. pneumoniae SV1 SP-3 were 4 µg/mL (≈ 13.8 µM), 4 µg/mL (≈ 13.8 µM) and 2 µg/mL (≈ 6.91 µM), respectively.
For the molecule `CCN1C(=O)Cc2cc(N3C[C@H](C(=O)NC)OC3=O)ccc21` [Example 5], the MIC90 in the assay on E.faecalis MGH-2 EF 1-1, against S. aureus UC-76 SA-1 and in the assay with S. pneumoniae SV1 SP-3 was 4 µg/mL (≈ 13.2 µM) each time.
Regarding `NC(=O)[C@H]1CN(c2ccc3c(c2)CC(=O)N3CCF)C(=O)O1` [Example 6], the MIC90 against E.faecalis MGH-2 EF 1-1, against S. aureus UC-76 SA-1 and in the assay with S. pneumoniae SV1 SP-3 was 4 µg/mL (≈ 13 µM) throughout.
For the molecule `CNC(=O)[C@H]1CN(c2ccc3c(c2)CC(=O)N3CCF)C(=O)O1` [Example 7], the MIC90 against E.faecalis MGH-2 EF 1-1, in the assay on S. aureus UC-76 SA-1 and in the assay with S. pneumoniae SV1 SP-3 was 4 µg/mL (≈ 12.4 µM) in each case.
Regarding `CC(C)N1C(=O)Cc2cc(N3C[C@H](C(N)=O)OC3=O)ccc21` [Example 8], the MIC90 against E.faecalis MGH-2 EF 1-1, against S. aureus UC-76 SA-1 and against S. pneumoniae SV1 SP-3 was 4 µg/mL (≈ 13.2 µM) throughout.
Turning to `CNC(=O)[C@H]1CN(c2ccc3c(c2)CC(=O)N3C(C)C)C(=O)O1` [Example 9, (5R)-3-(1-isopropyl-2-oxo-2,3-dihydro-1H-indol-5-yl)-2-oxo-oxazolidine-5-carboxylic acid methylamide], the MIC90 was found to be 8 µg/mL (≈ 25.2 µM) against E.faecalis MGH-2 EF 1-1, 8 µg/mL (≈ 25.2 µM) against S. aureus UC-76 SA-1 and 4 µg/mL (≈ 12.6 µM) in the assay with S. pneumoniae SV1 SP-3.
As for `CC(C)N1C(=O)Cc2cc(N3C[C@H](C(N)=O)OC3=O)cc(F)c21` [Example 10, (5R)-3-(7-fluoro-1-isopropyl-2-oxo-2,3-dihydro-1H-indol-5-yl)-2-oxo-oxazolidine-5-carboxylic acid amide], the MIC90 with E.faecalis MGH-2 EF 1-1, in the assay with S. aureus UC-76 SA-1 and with S. pneumoniae SV1 SP-3 was 4 µg/mL (≈ 12.4 µM) each time.
For `NC(=O)[C@H]1CN(c2ccc3c(c2)CC(=O)N3C2CC2)C(=O)O1` [Example 11, (5R)-3-(1-cyclopropyl-2-oxo-2,3-dihydro-1H-indol-5-yl)-2-oxo-oxazolidine-5-carboxylic acid amide], the MIC90 in the assay with E.faecalis MGH-2 EF 1-1 is 16 µg/mL (≈ 53.1 µM); in the assay on S. aureus UC-76 SA-1, 8 µg/mL (≈ 26.6 µM); against S. pneumoniae SV1 SP-3, 8 µg/mL (≈ 26.6 µM).
Consider `CNC(=O)[C@H]1CN(c2ccc3c(c2)CC(=O)N3C2CC2)C(=O)O1` [Example 12, (5R)-3-(1-cyclopropyl-2-oxo-2,3-dihydro-1H-indol-5-yl)-2-oxo-oxazolidine-5-carboxylic acid methylamide], for which the MIC90 in the assay on E.faecalis MGH-2 EF 1-1 worked out at 16 µg/mL (≈ 50.7 µM); against S. aureus UC-76 SA-1, 8 µg/mL (≈ 25.4 µM); with S. pneumoniae SV1 SP-3 it was 8 µg/mL (≈ 25.4 µM).
As for `CCCN1C(=O)Cc2cc(N3C[C@H](C(N)=O)OC3=O)ccc21` [Example 13, (R)-2-oxo-3-(2-oxo-1-propyl-2,3-dihydro-1H-indol-5-yl)-oxazolidine-5-carboxylic acid amide], the MIC90 in the assay on E.faecalis MGH-2 EF 1-1 is 8 µg/mL (≈ 26.4 µM); against S. aureus UC-76 SA-1 it was 4 µg/mL (≈ 13.2 µM); against S. pneumoniae SV1 SP-3, 8 µg/mL (≈ 26.4 µM).
For `CCCN1C(=O)Cc2cc(N3C[C@H](C(=O)NC)OC3=O)ccc21` [Example 14, (R)-2-oxo-3-(2-oxo-1-propyl-2,3-dihydro-1H-indol-5-yl)-oxazolidine-5-carboxylic acid methylamide], the MIC90 in the assay with E.faecalis MGH-2 EF 1-1, with S. aureus UC-76 SA-1 and in the assay on S. pneumoniae SV1 SP-3 was 4 µg/mL (≈ 12.6 µM) in each case.
Take `CCCN1C(=O)Cc2cc(N3C[C@H](C(N)=O)OC3=O)cc(F)c21` [Example 15, (R)-3-(7-fluoro-2-oxo-1-propyl-2,3-dihydro-1H-indol-5-yl)-2-oxo-oxazolidine-5-carboxylic acid amide]: the values for the MIC90 in the assay with E.faecalis MGH-2 EF 1-1, with S. aureus UC-76 SA-1 and with S. pneumoniae SV1 SP-3 were 8 µg/mL (≈ 24.9 µM), 4 µg/mL (≈ 12.4 µM) and 8 µg/mL (≈ 24.9 µM), respectively.
Turning to `CC(C)(C)N1C(=O)Cc2cc(N3C[C@H](C(N)=O)OC3=O)ccc21` [Example 16], the MIC90 in the assay with E.faecalis MGH-2 EF 1-1 is 16 µg/mL (≈ 50.4 µM); in the assay with S. aureus UC-76 SA-1, 8 µg/mL (≈ 25.2 µM); with S. pneumoniae SV1 SP-3 it was 16 µg/mL (≈ 50.4 µM).
Turning to `CCC(C)N1C(=O)Cc2cc(N3C[C@H](C(N)=O)OC3=O)ccc21` (stereo partly drawn) [Example 17, (R)-3-(1-sec-butyl-2-oxo-2,3-dihydro-1H-indol-5-yl)-2-oxo-oxazolidine-5-carboxylic acid amide], the MIC90 was 8 µg/mL (≈ 25.2 µM) in the assay with E.faecalis MGH-2 EF 1-1, 4 µg/mL (≈ 12.6 µM) in the assay on S. aureus UC-76 SA-1 and 8 µg/mL (≈ 25.2 µM) against S. pneumoniae SV1 SP-3.
As for `CCC(C)N1C(=O)Cc2cc(N3C[C@H](C(=O)NC)OC3=O)ccc21` (stereo partly drawn) [Example 18, (R)-3-(1-sec-butyl-2-oxo-2,3-dihydro-1H-indol-5-yl)-2-oxo-oxazolidine-5-carboxylic acid methylamide], the MIC90 against E.faecalis MGH-2 EF 1-1, against S. aureus UC-76 SA-1 and against S. pneumoniae SV1 SP-3 was 8 µg/mL (≈ 24.1 µM) in each case.
Consider `CC(CF)N1C(=O)Cc2cc(N3C[C@H](C(N)=O)OC3=O)ccc21` (stereo partly drawn) [Example 19, (R)-3-[1-(2-fluoro-1-methyl-ethyl)-2-oxo-2,3-dihydro-1H-indol-5-yl]-2-oxo-oxazolidine-5-carboxylic acid amide], for which the MIC90 with E.faecalis MGH-2 EF 1-1, against S. aureus UC-76 SA-1 and against S. pneumoniae SV1 SP-3 was 4 µg/mL (≈ 12.4 µM) each time.
Consider `CC(C)CN1C(=O)Cc2cc(N3C[C@H](C(N)=O)OC3=O)ccc21` [Example 20, (R)-3-(1-Isobutyl-2-oxo-2,3-dihydro-1H-indol-5-yl)-2-oxo-oxazolidine-5-carboxylic acid amide], for which the MIC90 in the assay on E.faecalis MGH-2 EF 1-1, with S. aureus UC-76 SA-1 and against S. pneumoniae SV1 SP-3 was 64 µg/mL (≈ 202 µM) each time.
Take `CNC(=O)[C@H]1CN(c2ccc3c(c2)CC(=O)N3CC(C)C)C(=O)O1` [Example 21, (R)-3-(1-isobutyl-2-oxo-2,3-dihydro-1H-indol-5-yl)-2-oxo-oxazolidine-5-carboxylic acid methylamide]: the MIC90 against E.faecalis MGH-2 EF 1-1, against S. aureus UC-76 SA-1 and against S. pneumoniae SV1 SP-3 was 64 µg/mL (≈ 193 µM) in each case.
For `NC(=O)[C@H]1CN(c2ccc3c(c2)CC(=O)N3C2CCC2)C(=O)O1` [Example 22, (R)-3-(1-cyclobutyl-2-oxo-2,3-dihydro-1H-indol-5-yl)-2-oxo-oxazolidine-5-carboxylic acid amide], the MIC90 is 64 µg/mL (≈ 203 µM) against E.faecalis MGH-2 EF 1-1, 32 µg/mL (≈ 101 µM) with S. aureus UC-76 SA-1 and 64 µg/mL (≈ 203 µM) against S. pneumoniae SV1 SP-3.
`CNC(=O)[C@H]1CN(c2ccc3c(c2)CC(=O)N3C2CCC2)C(=O)O1` [Example 23, (R)-3-(1-cyclobutyl-2-oxo-2,3-dihydro-1H-indol-5-yl)-2-oxo-oxazolidine-5-carboxylic acid methylamide]: the MIC90 was found to be 64 µg/mL (≈ 194 µM) with E.faecalis MGH-2 EF 1-1, 16 µg/mL (≈ 48.6 µM) against S. aureus UC-76 SA-1 and 32 µg/mL (≈ 97.2 µM) against S. pneumoniae SV1 SP-3.
